Assay results: patent US10653647B2 (priority 2003, dated 2020)

Tested on: terminal sensory nerve fibers of rat vulva
Experiment: reduction of nerve fiber density in rat vulva, PGP 9.5 immunostaining
Type: in vivo
Details: 33 μL, 1% (w/v) in DGME applied for 20 minutes, Day 7, statistical significance not established
Experimental: Sixty female retired breeder Sprague-Dawley rats were divided into 6 groups. On day 0, rats were anesthetized with isoflurane anesthetic gas and then LMX5® anesthetic cream was applied to the entire vulvar area of each rat at least 30 minutes. The test formulations were applied using a micropipette to dispense 33 μL of each formulation. The formulations applied were diethylene glycol monoethyl ether (DGME) alone; 0.01% capsaicin (w/v) in DGME; 0.1% capsaicin (w/v) in DGME; 1% resiniferatoxin (w/v) in DGME; 3% capsaicin (w/v) in 90% (v/v) DGME and 10% (v/v) DMSO, a 10% capsaicin (w/v) in DGME. The formulations were left on for 20 minutes with the exception of 10% capsaicin (w/v) in DGME which was left on for 5 minutes. The remaining formulation was removed using a cleansing gel (89.08% PEG 300, 1.0% Carbopol 1382™, 0.02% butylated hydroxyanisole, 0.01% disodium edentate, pH 6.5). […] The tissues were evaluated by a board certified veterinary pathologist for (1) any and all lesions, with particular attention to inflammation and any microvascular changes, and (2) the presence, absence and any abnormalities in the architecture of the terminal nerve sensory nerve fibers. For each specimen, nerve fiber functionality was determined by counting the number of nerve fibers observed in at least four microscopical fields (each circular microscopical field has a radius of 90 μm) and then averaged. […]

## C=C(C)[C@]12C[C@@H](C)[C@@]34O[C@](Cc5ccccc5)(O[C@@H]1[C@@H]3C=C(COC(=O)Cc1ccc(O)c(OC)c1)C[C@]1(O)C(=O)C(C)=C[C@@H]41)O2 [resiniferatoxin]
  decrease in nerve fiber density: 28%
